Experimental data published in patent US9675697B2 (THE REGENTS OF THE UNIVERSITY OF MICHIGAN, priority 2013, dated 2017).
Read-outs that look alike come from different tables or passages of the source.

How the values were obtained:
MV4;11 = experiment: Cell growth inhibition in leukemia cell line; format: cell-based; conditions: Homo sapiens, MV4-11, cell growth inhibition
BRD4 BD1 = BRD4 BD1 (Homo sapiens (Human), UniProt O60885); experiment: FP competitive binding assay using Cpd. No. 350 as the probe
Method: (§5) Fluorescence Polarization (FP) competitive binding studies (see above) were carried out using the FAM labeled fluorescent probe Cpd. No. 350 to determine binding affinities of representative compounds to both BD1 and BD2 of BRD2, BRD3, and BRD4 proteins. Equilibrium dissociation constants (Id) values of Cpd. No. 350 to these six proteins were determined from protein saturation experiments by monitoring the total fluorescence polarization of mixtures composed with the fluorescent probe at a fixed concentration and proteins with increasing concentrations up to full saturation. Serial dilutions of testing protein were mixed with Cpd. No. 350 to a final volume of 200 μl in the assay buffer. […] Plates were incubated at room temperature for 30 minutes with gentle shaking to assure equilibrium. […] Kd values of Cpd.
(§6) The IC50 and Ki values of compounds were determined in a competitive binding experiment as described above. […] FP values were measured as described above. IC50 values were determined by nonlinear regression fitting of the competition curves.

[1] = test system: leukemia MOLM-13 cell line; experiment: 4-day cell viability assay, CellTiter-Glo; format: cell-based; conditions: 4 days, read-out: Cell Growth Inhibition (IC50 (nM)) MOLM-13 Cell Line (CellTiter-Glo assay)
Method: (§1) The effect of representative BET bromodomain inhibitors on cell viability was determined in a 4-day proliferation assay. Cells were maintained in the appropriate culture medium with 10% FBS at 37° C. and an atmosphere of 5% CO2. All the cell lines were used within three months of thawing fresh vials.
(§2) Cells were seeded in 96-well flat bottom (Corning COSTAR, Corning, N.Y., cat#3595) or white opaque cell culture plates (BD Falcon, cat#353296) at a density of 3,000-10,000 cells/well in 75 μl of culture medium. Compounds were serially diluted in the appropriate medium, and 75 μl of the diluted compounds were added to the appropriate wells of the cell plate. After the addition of compounds, the cells were incubated at 37° C. in an atmosphere of 5% CO2 for 4 days. Cell viability was determined using the CellTiter-Glo® Luminescent Cell Viability Assay Kit (Promega, Madison, Wis.) for MOLM-13 cells and WST (2-(2-methoxy-4-nitrophenyl)-3-(4-nitrophenyl)-5-(2,4-disulfophenyl)-2H-tetrazolium, monosodium salt) Cell Counting-8 Kit (Dojindo Molecular Technologies, Inc., Rockville, Md.) for MDA-MB-436 cells according to the manufacturers' instructions.
For the CellTiter-Glo assay, 100 μl of CellTiter-Glo® Reagent was added to each well, and then the plates were incubated at room temperature for 10-20 minutes. The luminescent signal was measured using a Tecan Infinite M1000 multimode microplate reader (Tecan, Morrisville, N.C.). The readings were normalized to the DMSO-treated cells and the IC50 was calculated by nonlinear regression (four parameters sigmoid fitted with variable slope, least squares fit, and no constraint) analysis using the GraphPad Prism 5 software.

K562 = experiment: Cell growth inhibition in leukemia cell line; format: cell-based; conditions: Homo sapiens
BRD3 BD1 = BRD3 BD1 (Homo sapiens (Human), UniProt Q15059); experiment: FP competitive binding assay using Cpd. No. 350 as the probe
Method: as §5, §6

BRD4 BD2 [2] = target: T1, BRD4 BD2 (Homo sapiens (Human), UniProt O60885); experiment: FP competitive binding assay (BRD-1F probe); conditions: for IC50: BRD-1F probe 5 nM, protein 200 nM; for Ki: BRD-1F probe, calculated from IC50
Method: (§3) The FAM labeled fluorescent probe (BRD-1F) was synthesized based on a known small-molecule BET bromodomain inhibitor. […] Final BRD-1F concentration was 5 nM. Plates were incubated at room temperature for 1-2 hours with gentle shaking to assure equilibrium.
(§4) Final probe concentration is 5 nM in all assays. […] FP values were measured as described above.

BRD2 BD2 [3] = target: T2, BRD2 BD2 (Homo sapiens (Human), UniProt P25440); experiment: FP competitive binding assay (BRD-1F probe); conditions: for IC50: BRD-1F probe 5 nM, protein 200 nM; for Ki: BRD-1F probe, calculated from IC50
Method: as §3, §4

AML-2 = experiment: Cell growth inhibition in leukemia cell line; format: cell-based
Method: as §1, §2

BRD4 BD2 [4] = target: T1, BRD4 BD2; experiment: FP competitive binding assay using Cpd. No. 350 as the probe
BRD2 BD1 = BRD2 BD1 (Homo sapiens (Human), UniProt P25440); experiment: as above
BRD3 BD2 = BRD3 BD2 (Homo sapiens (Human), UniProt Q15059); experiment: as above
Method: as §5, §6

BRD2 BD2 [5] = target: T2, BRD2 BD2; experiment: as above
Method: as §5, §6

prostate VCaP cell line = experiment: Cell growth inhibition, Cell TiterGLO, 4 days; format: cell-based; conditions: treated 4 days, read-out: VCaP cells (IC50 (nM))
[6] = test system: breast cancer MDA-MB-436 cell line; experiment: 4-day cell viability assay, WST; format: cell-based; conditions: 4 days, read-out: Cell Growth Inhibition (IC50 (nM)) MDA-436 Cell Line (WST assay)
Method: as §1, §2
For the WST assay, WST-8 reagent was added to each well at a final concentration of 10% (v/v), and then the plates were incubated at 37° C. for 1-2 hours for color development. The absorbance was measured at 450 nm using a SPECTRAmax PLUS plate reader (Molecular Devices, Sunnyvale, Calif.). The readings were normalized to the DMSO-treated cells and the half maximal inhibitory concentration (IC50) was calculated by nonlinear regression (four parameters sigmoid fitted with variable slope, least squares fit, and no constraint) analysis using the GraphPad Prism 5 software (GraphPad Software, La Jolla, Calif.).

[7] = read-out: BRD4 BD1 Ki, FP, Cpd. No. 350 probe […]
[8] = read-out: BRD3 BD1 Ki, FP, Cpd. No. 350 probe […]
[9] = read-out: BRD4 BD2 Ki, FP, Cpd. No. 350 probe […]
[10] = read-out: BRD2 BD1 Ki, FP, Cpd. No. 350 probe […]
[11] = read-out: BRD3 BD2 Ki, FP, Cpd. No. 350 probe […]
[12] = read-out: BRD2 BD2 Ki, FP, Cpd. No. 350 probe […]

BRD3 BD1, sequence (Q15059 34-140): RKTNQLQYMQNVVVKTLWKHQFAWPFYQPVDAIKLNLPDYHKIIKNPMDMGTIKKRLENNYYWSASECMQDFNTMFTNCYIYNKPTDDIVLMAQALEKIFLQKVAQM
T2 sequence (P25440 344-453): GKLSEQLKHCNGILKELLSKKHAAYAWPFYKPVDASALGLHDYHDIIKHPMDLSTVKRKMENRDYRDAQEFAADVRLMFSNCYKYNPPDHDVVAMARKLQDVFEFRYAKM
BRD2 BD1, sequence (P25440 74-180): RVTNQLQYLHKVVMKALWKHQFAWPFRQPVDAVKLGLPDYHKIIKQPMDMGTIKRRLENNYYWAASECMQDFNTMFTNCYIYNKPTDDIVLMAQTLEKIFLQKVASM
BRD3 BD2, sequence (Q15059 306-415): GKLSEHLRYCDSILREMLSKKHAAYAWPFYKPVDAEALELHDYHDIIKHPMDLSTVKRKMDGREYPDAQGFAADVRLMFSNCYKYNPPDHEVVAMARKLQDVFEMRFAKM

SMILES	Ki (BRD4 BD1; [7])	Ki (BRD3 BD1; [8])	IC50 (BRD4 BD2 [2])	Ki (BRD4 BD2 [2])	IC50 (BRD2 BD2 [3])	Ki (BRD2 BD2 [3])	Ki (BRD4 BD2 [4]; [9])	Ki (BRD2 BD1; [10])	Ki (BRD3 BD2; [11])	Ki (BRD2 BD2 [5]; [12])	IC50 (prostate VCaP cell line; Homo sapiens, VCaP, 96 h)	also measured
COc1cc2c(cc1-c1c(C)noc1C)[nH]c1ccnc(-c3cn[nH]c3)c12	247 ± 29 nM	151 ± 20 nM	608 ± 244 nM	114 ± 87 nM	286 ± 125 nM	42.3 ± 32 nM	201 ± 5 nM	138 ± 8 nM	48.7 ± 3.3 nM	89.7 ± 6.4 nM	–	IC50 (MV4;11): 1070 ± 195 nM; IC50 ([1]; Homo sapiens, MOLM-13, 96 h): 1040 ± 158 nM; IC50 (K562): > 2000 nM; IC50 (AML-2): 217 ± 61 nM
COc1cc2c(cc1-c1c(C)noc1C)[nH]c1ccnc(-c3ccccc3)c12	–	–	514 nM	83.4 nM	255 ± 114 nM	34.9 ± 21.2 nM	–	–	–	–	–	–
COc1cc2c(cc1-c1c(C)noc1C)[nH]c1ccnc(-c3cccnc3)c12	–	–	873 nM	232 nM	349 nM	57.4 nM	–	–	–	–	–	–
COc1cc2c(cc1-c1c(C)noc1C)[nH]c1ccncc12 [Cpd. No. 1, 4-(8-methoxy-5H-pyrido[4,3-b]indol-7-yl)-3,5-dimethylisoxazole]	–	–	–	–	–	–	–	–	–	–	–	IC50 (MV4;11): 178 ± 114 nM; Ki (BRD4 BD1): 47.8 ± 1 nM; IC50 ([1]; Homo sapiens, MOLM-13, 96 h): 550 ± 303 nM; IC50 (K562): > 2000 nM; Ki (BRD3 BD1): 14.7 ± 1 nM; IC50 (AML-2): 148 ± 64 nM; Ki (BRD4 BD2 [4]): 70.1 ± 2 nM; Ki (BRD2 BD1): 31.6 ± 8.2 nM; Ki (BRD3 BD2): 14.3 ± 0.5 nM; Ki (BRD2 BD2 [5]): 34.5 ± 2.1 nM
COc1cc2c(cc1-c1c(C)noc1C)[nH]c1ccnc(-c3c(C4CC4)n[nH]c3C)c12 [Cpd. No. 24, 4-(1-(3-cyclopropyl-5-methyl-1H-pyrazol-4-yl)-8-methoxy-5H-pyrido[4,3-b]indol-7-yl)-3,5-dimethylisoxazole]	–	–	–	–	–	–	–	–	–	–	–	IC50 (MV4;11): 83 ± 41 nM; Ki (BRD4 BD1): 116 ± 5 nM; IC50 ([1]; Homo sapiens, MOLM-13, 96 h): 280 ± 35 nM; IC50 (K562): > 2000 nM; Ki (BRD3 BD1): 38.2 ± 1 nM; IC50 (AML-2): 173 ± 89 nM; Ki (BRD4 BD2 [4]): 134 ± 42 nM; Ki (BRD2 BD1): 58.4 ± 1 nM; Ki (BRD3 BD2): 50.9 ± 5.8 nM; Ki (BRD2 BD2 [5]): 92.1 ± 3.3 nM
COc1cc2c(cc1-c1c(C)n[nH]c1C)[nH]c1ccnc(-c3c(C)n[nH]c3C)c12 [Cpd. No. 34, 1,7-bis(3,5-dimethyl-1H-pyrazol-4-yl)-8-methoxy-5H-pyrido[4,3-b]indole]	–	–	3670 nM	775 nM	3200 nM	1200 nM	–	–	–	–	–	–
COc1cc2c(cc1-c1c(C)noc1C)[nH]c1nc(C)nc(-c3ccnc4ccccc34)c12 [Cpd. No. 73]	35.3 nM	10.2 nM	–	–	–	–	7.8 nM	15.5 nM	2.6 nM	8.7 nM	156 nM	–
COc1cc2c(cc1-c1c(C)noc1C)[nH]c1nc(C)nc(-c3ccnc4ccc(Cl)cc34)c12 [Cpd. No. 90]	–	–	–	–	–	–	–	–	–	–	20 nM	–
COc1cc2c(cc1-c1c(C)noc1C)[nH]c1nc(C)nc(-c3cc(NCCN(C)C)nc4ccccc34)c12 [Cpd. No. 101]	–	–	–	–	–	–	–	–	–	–	25 nM	–
COc1cc2c(cc1-c1c(C)noc1C)[nH]c1nc(C)nc(-c3cc(C(=O)NC4CCN(C5COC5)CC4)[nH]c3C(C)C)c12 [Cpd. No. 213, 4-(7-(3,5-Dimethylisoxazol-4-yl)-6-methoxy-2-methyl-9H-pyrimido[4,5-b]indol-4-yl)-5-isopropyl-N-(1-(oxetan-3-yl)piperidin-4-yl)-1H-pyrrole-2-carboxamide]	20.8 nM	14 nM	–	–	–	–	6.5 nM	10.5 nM	2.2 nM	7.1 nM	–	IC50 ([1]; Homo sapiens, MOLM-13, 96 h): 48 nM; IC50 ([6]; Homo sapiens, MDA-MB-436, 96 h): 225 nM
COc1cc2c(cc1-c1c(C)noc1C)[nH]c1ccnc(-c3c(C)nn(-c4ccccc4)c3C)c12 [Cpd. No. 352, 4-(1-(3,5-dimethyl-1-phenyl-1H-pyrazol-4-yl)-8-methoxy-5H-pyrido[4,3-b]indol-7-yl)-3,5-dimethylisoxazole]	103 ± 3 nM	31.8 ± 1.5 nM	–	–	–	–	98.1 ± 6.1 nM	62.6 ± 9 nM	35 ± 2 nM	52.9 ± 2.7 nM	–	IC50 [1]: 751 nM; IC50 [6]: 724 nM
COc1cc2c(cc1-c1c(C)noc1C)ncc1[nH]c(=O)n([C@H](C)c3ccccn3)c12 [I-BET151, reference compound]	–	–	–	–	–	–	–	–	–	–	862 nM	–
CCNC(=O)C[C@@H]1N=C(c2ccc(Cl)cc2)c2cc(OC)ccc2-n2c(C)nnc21 [I-BET762, reference compound]	–	–	–	–	–	–	–	–	–	–	500 nM	–
Cc1sc2c(c1C)C(c1ccc(Cl)cc1)=N[C@@H](CC(=O)OC(C)(C)C)c1nnc(C)n1-2 [JQ1, reference compound]	–	–	–	–	–	–	–	–	–	–	–	IC50 (prostate VCaP cell line): 48 nM
COc1cc2c(cc1-c1c(C)noc1C)[nH]c1ccncc12 [RX-7]	1640 ± 71 nM	730 ± 146 nM	2900 nM	850 nM	1350 ± 212 nM	366 ± 82 nM	824 ± 25 nM	650 ± 125 nM	241 ± 6 nM	498 ± 11 nM	–	–
